Here are results for 3 compounds from ChEMBL document CHEMBL5653631, “A Potent and Selective ULK1 Inhibitor Suppresses Autophagy and Sensitizes Cancer Cells to Nutrient Stress” (iScience, 2018).

The target in test [1] is Fibroblast growth factor receptor 1 (Homo sapiens) (UniProt P11362). The experiment in a line: Inhibition of human recombinant FGFR1 at 15 nM in presence of ATP by radiometric assay relative to control.
Test [2] deals with Tyrosine-protein kinase Lck (Homo sapiens) (UniProt P06239). The experiment in a line: Inhibition of human recombinant LCK at 15 nM in presence of ATP by radiometric assay relative to control.
The target in test [3] is High affinity nerve growth factor receptor (Homo sapiens) (UniProt P04629). The experiment in a line: Inhibition of human recombinant TRKA at 15 nM in presence of ATP by radiometric assay relative to control.
The target of test [4] is Cyclin-dependent kinase 1 (Homo sapiens) (UniProt P06493). The test can be described thus: Inhibition of human recombinant CDC2 at 40 nM in presence of ATP by radiometric assay relative to control.
Sequence of Cyclin-dependent kinase 1 (Homo sapiens) (P06493 whole entry, looked up): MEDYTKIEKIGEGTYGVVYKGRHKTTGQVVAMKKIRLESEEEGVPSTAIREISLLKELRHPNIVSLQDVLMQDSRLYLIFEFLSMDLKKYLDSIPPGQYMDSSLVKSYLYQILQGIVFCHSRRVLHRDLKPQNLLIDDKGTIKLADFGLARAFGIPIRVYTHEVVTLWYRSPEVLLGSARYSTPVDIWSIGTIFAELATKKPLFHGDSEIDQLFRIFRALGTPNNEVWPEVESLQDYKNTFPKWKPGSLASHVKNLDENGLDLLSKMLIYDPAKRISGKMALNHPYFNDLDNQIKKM
Test [5] deals with T1, Ephrin type-A receptor 3 (Homo sapiens) (UniProt P29320).
T1 sequence (whole entry): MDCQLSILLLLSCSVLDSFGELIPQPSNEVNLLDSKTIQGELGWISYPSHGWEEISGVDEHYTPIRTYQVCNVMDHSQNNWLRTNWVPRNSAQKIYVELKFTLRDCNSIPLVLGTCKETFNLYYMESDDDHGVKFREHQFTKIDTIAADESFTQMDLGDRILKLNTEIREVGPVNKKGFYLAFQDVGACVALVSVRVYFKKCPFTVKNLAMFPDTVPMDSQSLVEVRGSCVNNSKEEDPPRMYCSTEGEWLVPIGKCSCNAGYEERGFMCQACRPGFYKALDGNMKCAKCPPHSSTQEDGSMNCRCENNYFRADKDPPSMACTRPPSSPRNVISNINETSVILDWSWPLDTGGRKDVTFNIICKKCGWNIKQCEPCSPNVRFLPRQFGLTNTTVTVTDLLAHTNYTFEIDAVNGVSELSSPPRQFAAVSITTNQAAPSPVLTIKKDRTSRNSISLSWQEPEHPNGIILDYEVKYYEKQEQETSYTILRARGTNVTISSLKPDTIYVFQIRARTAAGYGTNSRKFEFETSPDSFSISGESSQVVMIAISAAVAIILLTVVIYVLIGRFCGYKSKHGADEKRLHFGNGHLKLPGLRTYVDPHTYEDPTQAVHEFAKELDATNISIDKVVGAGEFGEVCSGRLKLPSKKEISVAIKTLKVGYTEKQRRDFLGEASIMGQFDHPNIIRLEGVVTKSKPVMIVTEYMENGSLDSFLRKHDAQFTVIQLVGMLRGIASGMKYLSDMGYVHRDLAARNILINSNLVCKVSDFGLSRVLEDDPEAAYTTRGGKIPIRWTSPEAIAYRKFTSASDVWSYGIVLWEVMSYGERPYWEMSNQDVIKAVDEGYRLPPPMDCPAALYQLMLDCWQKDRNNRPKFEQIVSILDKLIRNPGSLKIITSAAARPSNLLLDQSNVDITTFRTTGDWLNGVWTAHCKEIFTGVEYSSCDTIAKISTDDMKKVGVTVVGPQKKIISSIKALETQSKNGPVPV
The experiment in a line: Inhibition of human recombinant EphA3 at 40 nM in presence of ATP by radiometric assay relative to control.

The target of test [6] is Ephrin type-A receptor 7 (Homo sapiens) (UniProt Q15375). The test can be described thus: Inhibition of human recombinant EphA7 at 40 nM in presence of ATP by radiometric assay relative to control.
Sequence of Ephrin type-A receptor 7 (Homo sapiens) (Q15375 28-998 limits assumed): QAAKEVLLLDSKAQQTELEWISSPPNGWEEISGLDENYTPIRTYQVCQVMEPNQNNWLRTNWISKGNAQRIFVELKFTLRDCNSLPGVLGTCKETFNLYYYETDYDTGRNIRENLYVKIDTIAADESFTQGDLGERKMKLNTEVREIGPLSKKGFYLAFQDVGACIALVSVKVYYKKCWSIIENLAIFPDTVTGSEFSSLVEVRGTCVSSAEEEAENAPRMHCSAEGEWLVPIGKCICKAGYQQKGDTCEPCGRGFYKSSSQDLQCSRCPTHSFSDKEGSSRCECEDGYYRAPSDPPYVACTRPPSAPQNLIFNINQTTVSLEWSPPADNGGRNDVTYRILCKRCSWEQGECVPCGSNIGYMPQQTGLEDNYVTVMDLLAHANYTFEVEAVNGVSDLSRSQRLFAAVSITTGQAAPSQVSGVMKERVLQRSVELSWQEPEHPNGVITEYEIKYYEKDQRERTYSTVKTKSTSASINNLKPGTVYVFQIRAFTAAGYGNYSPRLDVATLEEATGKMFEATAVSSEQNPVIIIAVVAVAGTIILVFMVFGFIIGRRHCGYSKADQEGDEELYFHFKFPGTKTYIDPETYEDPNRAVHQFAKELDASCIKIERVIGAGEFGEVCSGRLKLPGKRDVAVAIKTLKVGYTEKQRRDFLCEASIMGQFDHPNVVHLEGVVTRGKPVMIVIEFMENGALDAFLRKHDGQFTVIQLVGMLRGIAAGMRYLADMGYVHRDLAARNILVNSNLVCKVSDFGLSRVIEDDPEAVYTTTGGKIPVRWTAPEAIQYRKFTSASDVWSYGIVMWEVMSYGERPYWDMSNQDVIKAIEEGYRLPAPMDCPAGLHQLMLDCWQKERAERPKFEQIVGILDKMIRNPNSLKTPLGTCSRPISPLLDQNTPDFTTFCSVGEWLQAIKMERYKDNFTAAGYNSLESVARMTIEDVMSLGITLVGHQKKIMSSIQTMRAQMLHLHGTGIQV
For test [7], the target named is Serine/threonine-protein kinase SBK1 (Homo sapiens) (UniProt Q52WX2). The test can be described thus: Inhibition of human recombinant SBK1 at 40 nM in presence of ATP by radiometric assay relative to control.
Test [8] addresses Transcription initiation factor TFIID subunit 1-like (Homo sapiens) (UniProt Q8IZX4). The test can be described thus: Inhibition of human recombinant TAF1L at 40 nM in presence of ATP by radiometric assay relative to control.
The species entered for a further test is Homo sapiens. The experiment in a line: Inhibition of human recombinant CK1d at 40 nM related to control ULK1.
The target of test [9] is Serine/threonine-protein kinase 35 (Homo sapiens) (UniProt Q8TDR2). The test can be described thus: Inhibition of human recombinant CLIK1 at 40 nM related to control ULK1.
Sequence of Serine/threonine-protein kinase 35 (Homo sapiens) (Q8TDR2 whole entry): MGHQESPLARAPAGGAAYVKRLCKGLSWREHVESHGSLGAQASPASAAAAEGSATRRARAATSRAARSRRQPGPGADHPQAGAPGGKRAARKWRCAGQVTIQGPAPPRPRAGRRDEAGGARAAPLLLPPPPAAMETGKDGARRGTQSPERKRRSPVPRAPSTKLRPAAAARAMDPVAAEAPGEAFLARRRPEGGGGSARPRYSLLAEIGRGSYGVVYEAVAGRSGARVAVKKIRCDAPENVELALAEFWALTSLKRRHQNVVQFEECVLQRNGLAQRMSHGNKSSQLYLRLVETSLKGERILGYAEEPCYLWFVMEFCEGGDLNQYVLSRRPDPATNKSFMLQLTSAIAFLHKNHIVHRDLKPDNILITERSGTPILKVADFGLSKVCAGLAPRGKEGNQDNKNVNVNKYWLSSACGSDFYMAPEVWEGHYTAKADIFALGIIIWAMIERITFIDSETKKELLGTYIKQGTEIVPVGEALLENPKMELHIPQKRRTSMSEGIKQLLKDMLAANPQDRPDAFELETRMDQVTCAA
Test [10] addresses Serine/threonine-protein kinase WNK1 (Homo sapiens) (UniProt Q9H4A3). The experiment in a line: Inhibition of human recombinant Wnk1 at 40 nM related to control ULK1.
Test [11] has as its target Receptor tyrosine-protein kinase erbB-4 (Homo sapiens) (UniProt Q15303). The experiment in a line: Inhibition of human recombinant ErbB4 at 500 nM in presence of ATP by radiometric assay relative to control.
In test [12] the target is Rho-associated protein kinase 1 (Homo sapiens) (UniProt Q13464). The experiment in a line: Inhibition of human recombinant ROCK1 at 500 nM in presence of ATP by radiometric assay relative to control.
The target of test [13] is Ephrin type-A receptor 5 (Homo sapiens) (UniProt P54756). The experiment in a line: Inhibition of human recombinant EphA5 at 500 nM related to control ULK1.
For test [14], the target named is T2, Mitogen-activated protein kinase kinase kinase 2 (Homo sapiens) (UniProt Q9Y2U5).
T2 sequence (whole entry): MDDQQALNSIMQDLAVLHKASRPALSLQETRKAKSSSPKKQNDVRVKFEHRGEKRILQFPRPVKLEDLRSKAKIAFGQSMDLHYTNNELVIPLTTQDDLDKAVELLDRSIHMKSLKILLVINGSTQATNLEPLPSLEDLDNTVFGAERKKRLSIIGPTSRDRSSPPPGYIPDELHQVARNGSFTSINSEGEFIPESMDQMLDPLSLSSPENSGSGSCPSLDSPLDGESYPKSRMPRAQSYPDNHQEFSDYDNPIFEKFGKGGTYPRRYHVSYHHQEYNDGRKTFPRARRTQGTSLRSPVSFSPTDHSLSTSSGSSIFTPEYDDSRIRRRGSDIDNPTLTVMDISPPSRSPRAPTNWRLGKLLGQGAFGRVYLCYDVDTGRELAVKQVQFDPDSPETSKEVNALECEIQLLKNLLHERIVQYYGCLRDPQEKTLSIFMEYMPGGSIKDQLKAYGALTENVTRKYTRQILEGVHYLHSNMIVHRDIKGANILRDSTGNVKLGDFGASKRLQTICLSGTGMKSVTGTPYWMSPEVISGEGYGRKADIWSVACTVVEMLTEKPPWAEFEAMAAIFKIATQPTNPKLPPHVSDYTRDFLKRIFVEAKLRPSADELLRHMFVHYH
The test can be described thus: Inhibition of human recombinant MAP3K2 at 500 nM related to control ULK1.

The target in test [15] is Wee1-like protein kinase 2 (Homo sapiens) (UniProt P0C1S8). The experiment in a line: Inhibition of human recombinant Wee1B at 500 nM related to control ULK1.
Sequence of Wee1-like protein kinase 2 (Homo sapiens) (P0C1S8 whole entry, looked up): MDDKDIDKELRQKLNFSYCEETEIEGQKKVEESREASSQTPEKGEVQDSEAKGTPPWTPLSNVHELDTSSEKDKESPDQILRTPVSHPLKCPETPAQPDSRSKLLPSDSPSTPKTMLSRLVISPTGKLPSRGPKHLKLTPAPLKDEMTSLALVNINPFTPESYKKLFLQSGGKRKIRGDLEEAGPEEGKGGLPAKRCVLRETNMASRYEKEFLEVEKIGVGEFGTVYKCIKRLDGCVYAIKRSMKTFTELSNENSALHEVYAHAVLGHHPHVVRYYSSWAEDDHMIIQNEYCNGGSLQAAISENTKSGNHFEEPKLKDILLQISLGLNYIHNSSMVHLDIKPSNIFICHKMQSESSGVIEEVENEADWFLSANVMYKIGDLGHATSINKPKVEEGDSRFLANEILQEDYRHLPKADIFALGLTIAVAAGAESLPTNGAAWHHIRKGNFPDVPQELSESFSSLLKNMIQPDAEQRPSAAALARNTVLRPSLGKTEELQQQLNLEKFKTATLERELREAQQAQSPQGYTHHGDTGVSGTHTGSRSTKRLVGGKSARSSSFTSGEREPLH

Sequence of Serine/threonine-protein kinase WNK1 (Homo sapiens) (Q9H4A3 whole entry, looked up): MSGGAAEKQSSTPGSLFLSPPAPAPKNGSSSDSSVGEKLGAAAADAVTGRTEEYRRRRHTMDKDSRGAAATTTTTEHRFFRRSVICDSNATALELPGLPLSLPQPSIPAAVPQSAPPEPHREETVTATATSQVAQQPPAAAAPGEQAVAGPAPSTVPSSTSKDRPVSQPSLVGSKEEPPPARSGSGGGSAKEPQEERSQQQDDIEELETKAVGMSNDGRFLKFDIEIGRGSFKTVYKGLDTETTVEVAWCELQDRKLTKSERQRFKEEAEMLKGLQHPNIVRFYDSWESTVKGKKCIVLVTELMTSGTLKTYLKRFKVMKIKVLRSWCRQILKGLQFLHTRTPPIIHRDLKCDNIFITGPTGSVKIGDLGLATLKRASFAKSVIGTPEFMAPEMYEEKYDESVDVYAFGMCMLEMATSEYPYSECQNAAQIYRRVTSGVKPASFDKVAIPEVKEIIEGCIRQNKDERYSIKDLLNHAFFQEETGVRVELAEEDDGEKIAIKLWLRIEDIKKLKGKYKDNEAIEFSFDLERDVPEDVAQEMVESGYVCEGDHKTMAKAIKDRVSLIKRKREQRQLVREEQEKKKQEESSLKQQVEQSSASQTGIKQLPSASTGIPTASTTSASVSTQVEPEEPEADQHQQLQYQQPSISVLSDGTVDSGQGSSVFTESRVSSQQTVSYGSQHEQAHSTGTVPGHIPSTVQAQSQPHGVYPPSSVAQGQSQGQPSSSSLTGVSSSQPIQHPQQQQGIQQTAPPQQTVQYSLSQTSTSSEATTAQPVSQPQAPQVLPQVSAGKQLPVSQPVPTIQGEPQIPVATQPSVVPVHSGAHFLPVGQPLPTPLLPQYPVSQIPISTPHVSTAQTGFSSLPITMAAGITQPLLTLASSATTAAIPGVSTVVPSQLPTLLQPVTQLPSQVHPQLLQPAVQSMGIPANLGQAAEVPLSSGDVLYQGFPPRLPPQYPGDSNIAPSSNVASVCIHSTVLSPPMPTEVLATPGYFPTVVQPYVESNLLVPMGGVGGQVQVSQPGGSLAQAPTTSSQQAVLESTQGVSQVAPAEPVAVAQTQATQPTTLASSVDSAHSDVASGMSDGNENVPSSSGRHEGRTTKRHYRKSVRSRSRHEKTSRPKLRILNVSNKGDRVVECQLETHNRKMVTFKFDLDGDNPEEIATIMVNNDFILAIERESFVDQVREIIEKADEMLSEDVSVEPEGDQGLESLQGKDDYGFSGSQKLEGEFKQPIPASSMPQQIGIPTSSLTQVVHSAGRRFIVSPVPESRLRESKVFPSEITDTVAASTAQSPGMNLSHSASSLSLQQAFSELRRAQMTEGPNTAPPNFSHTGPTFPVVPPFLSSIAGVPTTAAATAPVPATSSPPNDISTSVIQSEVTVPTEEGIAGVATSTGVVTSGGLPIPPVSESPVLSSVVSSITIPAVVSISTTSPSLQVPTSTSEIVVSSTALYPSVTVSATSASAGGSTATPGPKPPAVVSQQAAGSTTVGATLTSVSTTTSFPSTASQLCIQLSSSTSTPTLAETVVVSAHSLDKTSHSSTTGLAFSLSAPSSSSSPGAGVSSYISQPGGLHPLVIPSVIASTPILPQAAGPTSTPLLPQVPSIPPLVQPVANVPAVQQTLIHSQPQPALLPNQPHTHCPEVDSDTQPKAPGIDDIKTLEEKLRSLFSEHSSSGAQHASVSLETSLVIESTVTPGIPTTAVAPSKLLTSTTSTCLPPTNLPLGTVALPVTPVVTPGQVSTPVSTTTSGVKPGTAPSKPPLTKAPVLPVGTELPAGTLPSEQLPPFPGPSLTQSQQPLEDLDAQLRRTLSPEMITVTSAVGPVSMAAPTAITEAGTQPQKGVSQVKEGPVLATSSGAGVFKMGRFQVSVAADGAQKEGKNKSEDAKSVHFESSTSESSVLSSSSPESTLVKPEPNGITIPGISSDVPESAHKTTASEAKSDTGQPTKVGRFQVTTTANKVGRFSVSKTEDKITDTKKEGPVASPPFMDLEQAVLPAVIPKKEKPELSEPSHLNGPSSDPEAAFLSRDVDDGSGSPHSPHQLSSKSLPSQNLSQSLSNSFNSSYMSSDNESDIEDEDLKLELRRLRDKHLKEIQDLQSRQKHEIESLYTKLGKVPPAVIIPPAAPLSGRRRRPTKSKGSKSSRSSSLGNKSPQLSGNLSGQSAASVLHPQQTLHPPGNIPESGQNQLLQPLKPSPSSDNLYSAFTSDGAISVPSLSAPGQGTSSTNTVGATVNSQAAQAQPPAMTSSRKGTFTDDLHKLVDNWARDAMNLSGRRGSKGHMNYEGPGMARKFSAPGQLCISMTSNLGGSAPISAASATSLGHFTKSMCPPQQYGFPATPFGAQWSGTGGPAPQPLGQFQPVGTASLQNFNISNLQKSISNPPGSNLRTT

With `CC(C)[C@H](NC(=O)c1cc(-c2cnn3cc(-c4ccc(OCCN5CCCCC5)cc4)cnc23)cs1)C(F)(F)F`, the inhibition is 0% in test [1], 11% in test [2] and 0% in [3].
In the case of `O=C(N[C@@H](C1CC1)C(F)(F)F)c1cc(-c2cnn3cc(-c4ccc(F)cc4)cnc23)cs1`, the inhibition was determined as 45% in [4]; 15% in [5]; 0% in test [6]; 0% in test [7]; 47% in [8]. Besides, the fold change (FC) in the test filed under Homo sapiens stood at 0.04; in test [9] it was 0.01; in test [10], 0.16.
Take `CNC(=O)c1ccccc1Oc1nc(Nc2cc(OC)c(OC)c(OC)c2)ncc1Br`: the inhibition in [11] and in test [12] was 0% each time. Further, the fold change (FC) was 0.26 in test [13], 0.04 in [14] and 0.03 in [15].
